Results taken from US20030050212A1, “Constituent of washing aid having anti-bacterial or the like component” (priority 2001, published 2003).

Legend:
[1] = oral test LD 50; type: in vivo
From the text: (§1) In actual application, 1 g of MFS 350 anti-bacterial material into 1 kg of raw material can provide a satisfactory result. Of course, the concentration can be adjusted in accordance with the requirements. In experiment, Ag ions oral test LD 50 is larger than 5000 mg1 kg, lethal test LD 50 is larger than 2000 mg1 Kg, which is relatively safe. […] The preferable metallic powder is powdery particle of nanometer in size having an excellent surface ratio. That is, under the same physical condition, a reaction surface is larger; preferably the physical size is 200 nanometer, preferably in the range of 50 to 100 nanometers.

[2] = system: bacteria; test: anti-bacterial effect of Ag ions; details: Ag ions at 1 ppm concentration
From the text: Anti-bacterial material, for example silver ions, of high concentration dispersions towards the low concentration area. By means of a physical stirring and agitating, the anti-bacterial is adsorbed onto the fabric under cleaning.

[3] = lethal test LD 50; details: in vivo
From the text: as §1

[Ag+] [Ag ions]
oral test LD 50 [1]: > 5000 mg1 kg
anti-bacterial effect [2]: possess anti-bacterial effect
lethal test LD 50 [3]: > 2000 mg1 Kg
